# Assay results published in paper PMC6112376, “Comprehensive Analyses and Prioritization of Tox21 10K Chemicals Affecting Mitochondrial Function by in-Depth Mechanistic Studies” (Environmental Health Perspectives, 2018).
# Like-named read-outs stand apart in the source and are kept apart here.
# What was measured:
# [1] = test system: HepG2 cells; conditions: cited from earlier work; for IC50: read-out: MMP assays IC50 (µM) qHTS-HepG2
# [2] = test system: p53 (p53-bla HCT-116 cells); assay: p53 β-lactamase reporter gene assay; assay type: cell-based, human
# [3] = test system: isolated rat liver mitochondria; assay: Oxygen consumption, Clark-type oxygen electrode; assay type: biochemical
# [4] = test system: HepG2 cells
# [5] = test system: HepG2 cells; assay: Oxygen consumption, Seahorse XF24 analyzer; assay type: cell-based, human
# [6] = test system: Nrf2/ARE (ARE-bla HepG2 cells); assay: ARE β-lactamase reporter gene assay; assay type: cell-based, human; conditions: for EC50: 16 h incubation, mean±SD of three experiments, read-out: ARE (HepG2) EC50; for ARE (HepG2) (efficacy): % of positive control
# [7] = test system: rat primary hepatocytes; assay: MMP assay in rat primary hepatocytes
# [8] = test system: HeLa cells expressing YFP-Parkin; assay: Parkin translocation assay; assay type: cell-based, human
# [9] = test system: rat primary hepatocytes
# [10] = test system: hNSC; assay: MMP assay in human neural stem cells (hNSC); assay type: cell-based; conditions: for IC50: read-out: hNSC IC50 (MMP)
# [11] = test system: HepG2 cells; assay: ROS-Glo hydrogen peroxide (ROS) assay; assay type: cell-based, human
# [12] = test system: HepG2 cells; assay: Intracellular ATP content (cell viability) assay; assay type: cell-based, human
# [13] = test system: mitochondrial respiratory chain complex III; assay type: biochemical, rat; conditions: at 100μM
# [14] = test system: mitochondrial respiratory chain complex IV; assay type: biochemical, rat
# [15] = molecular target: T1, mitochondrial respiratory chain complex II (Rattus norvegicus, UniProt P21913+Q641Z9+Q6PCT8+Q920L2); assay: Respiratory chain complex II activity; assay type: biochemical; conditions: at 100μM; mean±SD of three experiments
# T1 construct: Submitochondrial particles were prepared by subjecting the intact rat mitochondria, isolated as described above, to three successive freeze–thaw cycles; from tissue; host or cells: rat liver mitochondria (submitochondrial particles)
# T1 sequence (Q920L2 35-656): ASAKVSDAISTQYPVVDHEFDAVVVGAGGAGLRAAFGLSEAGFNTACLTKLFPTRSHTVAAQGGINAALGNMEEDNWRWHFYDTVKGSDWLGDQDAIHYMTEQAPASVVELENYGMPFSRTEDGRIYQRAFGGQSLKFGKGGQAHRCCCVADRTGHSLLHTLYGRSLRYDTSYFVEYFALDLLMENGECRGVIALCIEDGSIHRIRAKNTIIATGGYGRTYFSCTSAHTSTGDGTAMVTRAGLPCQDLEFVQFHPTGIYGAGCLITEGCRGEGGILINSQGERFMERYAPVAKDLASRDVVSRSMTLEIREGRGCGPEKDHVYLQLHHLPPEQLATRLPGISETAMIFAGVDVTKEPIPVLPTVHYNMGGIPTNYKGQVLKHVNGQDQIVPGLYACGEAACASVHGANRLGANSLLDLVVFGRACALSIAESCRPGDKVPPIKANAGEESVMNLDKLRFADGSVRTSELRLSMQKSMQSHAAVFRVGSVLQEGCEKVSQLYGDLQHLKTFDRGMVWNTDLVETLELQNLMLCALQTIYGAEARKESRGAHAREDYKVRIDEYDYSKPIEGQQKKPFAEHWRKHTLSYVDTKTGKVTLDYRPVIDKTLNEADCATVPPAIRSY
# T1 sequence (P21913 31-282): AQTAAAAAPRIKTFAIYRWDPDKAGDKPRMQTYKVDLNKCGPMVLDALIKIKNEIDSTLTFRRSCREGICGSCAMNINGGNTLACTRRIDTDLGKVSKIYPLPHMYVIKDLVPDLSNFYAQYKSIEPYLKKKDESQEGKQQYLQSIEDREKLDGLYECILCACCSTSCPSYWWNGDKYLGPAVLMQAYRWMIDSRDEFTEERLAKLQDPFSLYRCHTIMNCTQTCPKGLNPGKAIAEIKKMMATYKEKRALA
# T1 sequence (Q641Z9 1-169): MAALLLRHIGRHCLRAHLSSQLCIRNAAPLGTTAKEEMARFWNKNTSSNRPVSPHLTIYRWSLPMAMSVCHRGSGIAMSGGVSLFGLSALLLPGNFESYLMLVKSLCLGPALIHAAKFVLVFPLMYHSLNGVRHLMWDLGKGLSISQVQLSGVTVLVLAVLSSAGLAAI
# T1 sequence (Q6PCT8 57-159): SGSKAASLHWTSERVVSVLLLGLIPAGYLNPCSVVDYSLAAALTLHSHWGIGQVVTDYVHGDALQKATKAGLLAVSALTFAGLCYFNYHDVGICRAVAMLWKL
# [16] = test system: Caenorhabditis elegans strain PE255; assay: In vivo C. elegans ATP status assay
# [17] = test system: Caenorhabditis elegans (Bristol N2); assay: C. elegans larval development and growth assay
# [18] = test system: mitochondrial respiratory chain complex I; assay type: biochemical, rat; conditions: at 100μM
# [19] = test system: mitochondrial respiratory chain complex V; assay type: biochemical, rat
# [20] = 16 h incubation, mean±SD of three experiments
# [21] = % of positive control, mean±SD of three experiments
smiles,measurement,setting,value
CC(C)c1cccc(C(C)C)c1N1C(=O)c2ccc(O)cc2C1=O [5HPP-33],MMP assays efficacy (%) qHTS-HepG2,[1],-97±0%
same,IC50,[1],2.09 ± 0.87 µM
same,EC50,[2]; [20],1.73 ± 0.19 µM
same,p53 (HCT-116) (efficacy),[2]; % of positive control,76.9±9.78%
same,Potential Mechanism,[3],"Uncoupler at low concentration (20 µM), and uncoupler + inhibitor at high concentration (100 µM)"
same,"I-ADP, % of control (O2 consumption rate)",[3]; 4 µM,107 (52.5) % of control
same,"I-sub, % of control (O2 consumption rate)",[3]; 4 µM,123 (19.8) % of control
same,"II-ADP, % of control (O2 consumption rate)",[3]; 4 µM,89 (69.2) % of control
same,"II-sub, % of control (O2 consumption rate)",[3]; 4 µM,97 (29.6) % of control
same,"I-ADP, % of control (O2 consumption rate)",[3]; 20 µM,122 (60.3) % of control
same,"I-sub, % of control (O2 consumption rate)",[3]; 20 µM,296 (47.6) % of control
same,"II-ADP, % of control (O2 consumption rate)",[3]; 20 µM,95 (73.6) % of control
same,"II-sub, % of control (O2 consumption rate)",[3]; 20 µM,166 (50.8) % of control
same,"I-ADP, % of control (O2 consumption rate)",[3]; 100 µM,77 (41.0) % of control
same,"I-sub, % of control (O2 consumption rate)",[3]; 100 µM,331 (44.5) % of control
same,"II-ADP, % of control (O2 consumption rate)",[3]; 100 µM,51 (34.2) % of control
same,"II-sub, % of control (O2 consumption rate)",[3]; 100 µM,200 (43.4) % of control
same,HepG2 (efficacy) Galactose (MMP),[4],29.4±5.02 ( −106±1.68 ) %
same,HepG2 (efficacy) Glucose (MMP),[4],20.1±3.62 ( −100±2.99 ) %
same,MMP assays efficacy (%) HepG2,[4],-96%
same,IC50,[4]; read-out: HepG2 IC50 Galactose (MMP),29.4 µM
same,IC50,[4]; read-out: HepG2 IC50 Glucose (MMP),20.1 µM
same,IC50,[4]; read-out: MMP assays IC50 (µM) HepG2,2.24 µM
same,Activity in oxygen consumption,[5],Uncoupler+inhibitor
same,EC50,[6],25.3 ± 1.74 µM
same,ARE (HepG2) (efficacy),[6],54.9±7.97%
same,IC50,[7]; read-out: MMP assays IC50 (µM) Rat Hepatocytes,29.1 ± 12.2 µM
same,IC50,[7]; read-out: Rat hepatocytes IC50 (MMP),38.3 µM
same,Parkin recruitment,[8],Active
same,Rat hepatocytes (efficacy) (MMP),[9],38.3±4.41 ( −99.8±6.08 ) %
same,hNSC (efficacy) (MMP),[10],12.1±1.39 ( −107±4.15 ) %
same,IC50,[10],12.1 µM
same,ROS (HepG2) (efficacy),[11],37.1±2.42 ( 37.6±1.63 ) %
same,EC50,[11]; read-out: ROS (HepG2) EC50,37.1 µM
same,"ATP (HepG2, galactose) (efficacy)",[12],39.7±2.69 ( −66.5±7.10 ) %
same,"ATP (HepG2, glucose) (efficacy)",[12],51.2±14.4 ( −67.7±3.67 ) %
same,IC50,"[12]; read-out: ATP (HepG2, galactose) IC50",39.7 µM
same,IC50,"[12]; read-out: ATP (HepG2, glucose) IC50",51.2 µM
Cl.N=C1C=CC(=C(c2ccc(N)cc2)c2ccc(N)cc2)C=C1 [C.I. Basic red 9 monohydrochloride],Complex III % inhibition,[13],21.6±6.41 at 100μM %
same,MMP assays efficacy (%) qHTS-HepG2,[1],-95±11%
same,IC50,[1],0.08 ± 0.02 µM
same,p53 (HCT-116) EC50,[2]; [20],Inactive
same,"I-ADP, % of control (O2 consumption rate)","[3]; 0.8 µM, glutamate/malate driven state 3 respiration, isolated rat liver mitochondria",94 (41.0) % of control
same,"I-sub, % of control (O2 consumption rate)","[3]; 0.8 µM, glutamate/malate driven state 4 respiration, isolated rat liver mitochondria",100 (13.1) % of control
same,"II-ADP, % of control (O2 consumption rate)","[3]; 0.8 µM, succinate-driven state 3 respiration, isolated rat liver mitochondria",97 (65.8) % of control
same,"II-sub, % of control (O2 consumption rate)","[3]; 0.8 µM, succinate-driven state 4 respiration, isolated rat liver mitochondria",96 (20.1) % of control
same,"I-ADP, % of control (O2 consumption rate)","[3]; 4 µM, glutamate/malate driven state 3 respiration, isolated rat liver mitochondria",82 (35.8) % of control
same,"I-sub, % of control (O2 consumption rate)","[3]; 4 µM, glutamate/malate driven state 4 respiration, isolated rat liver mitochondria",92 (12.1) % of control
same,"II-ADP, % of control (O2 consumption rate)","[3]; 4 µM, succinate-driven state 3 respiration, isolated rat liver mitochondria",93 (63.1) % of control
same,"II-sub, % of control (O2 consumption rate)","[3]; 4 µM, succinate-driven state 4 respiration, isolated rat liver mitochondria",101 (21.1) % of control
same,"I-ADP, % of control (O2 consumption rate)","[3]; 20 µM, glutamate/malate driven state 3 respiration, isolated rat liver mitochondria",64 (27.9) % of control
same,"I-sub, % of control (O2 consumption rate)","[3]; 20 µM, glutamate/malate driven state 4 respiration, isolated rat liver mitochondria",106 (13.9) % of control
same,"II-ADP, % of control (O2 consumption rate)","[3]; 20 µM, succinate-driven state 3 respiration, isolated rat liver mitochondria",66 (44.4) % of control
same,"II-sub, % of control (O2 consumption rate)","[3]; 20 µM, succinate-driven state 4 respiration, isolated rat liver mitochondria",110 (22.9) % of control
same,"I-ADP, % of control (O2 consumption rate)","[3]; 100 µM, glutamate/malate driven state 3 respiration, isolated rat liver mitochondria",17 (9.1) % of control
same,"I-sub, % of control (O2 consumption rate)","[3]; 100 µM, glutamate/malate driven state 4 respiration, isolated rat liver mitochondria",94 (12.7) % of control
same,"II-ADP, % of control (O2 consumption rate)","[3]; 100 µM, succinate-driven state 3 respiration, isolated rat liver mitochondria",31 (21.0) % of control
same,"II-sub, % of control (O2 consumption rate)","[3]; 100 µM, succinate-driven state 4 respiration, isolated rat liver mitochondria",96 (20.8) % of control
same,effect on mitochondrial respiration (in words),"[3]; Clark-type oxygen electrode, concentrations up to 100μM","moderate inhibitory effect on state 3 respiration driven by both glutamate/malate and succinate, but not on state 4 respiration"
same,Potential Mechanism,"[3]; mitochondrial respiration in isolated rat liver mitochondria, Clark type oxygen electrode, over tested concentrations",Inhibitor
same,Complex IV % inhibition (activity call),[14],Inactive
same,Complex II % inhibition,[15],12.2±3.48 at 100μM %
same,HepG2 (efficacy) Glucose (MMP),"[4]; 5 mM glucose, % of positive control, mean±SD of three experiments",−97.1±6.48%
same,HepG2 (efficacy) Galactose (MMP),"[4]; 10 mM galactose, % of positive control, mean±SD of three experiments",−89.4±4.30%
same,MMP assays efficacy (%) HepG2,"[4]; HepG2 cells, single number from one experiment",-94%
same,IC50,"[4]; read-out: HepG2 IC50 Galactose (MMP), 10 mM galactose, no glucose, 1 h treatment, mean±SD of three experiments",2.53 ± 0.46 µM
same,IC50,"[4]; read-out: HepG2 IC50 Glucose (MMP), 5 mM glucose, 1 h treatment, fresh re-sourced stocks, mean±SD of three experiments",1.66 ± 0.28 µM
same,IC50,"[4]; read-out: MMP assays IC50 (µM) HepG2, HepG2 cells, single number from one experiment",0.56 µM
same,Activity in oxygen consumption,"[5]; Seahorse XF24, HepG2 cells, 25 mM glucose, 1, 4, 16, and 64μM",Inhibitor
same,EC50,[6],11.7 ± 7.37 µM
same,ARE (HepG2) (efficacy),[6],107±42.3%
same,Rat hepatocytes (efficacy) (MMP),[7]; [21],−90.3±2.77%
same,MMP assays efficacy (%) Rat Hepatocytes,"[7]; rat hepatocytes, mean ± SD of three experiments",-96±23%
same,IC50,"[7]; read-out: MMP assays IC50 (µM) Rat Hepatocytes, rat hepatocytes, mean ± SD of three experiments",4.11 ± 4.24 µM
same,IC50,"[7]; read-out: Rat hepatocytes IC50 (MMP), 1 h treatment, fresh re-sourced stocks, mean±SD of three experiments",6.3 ± 0.43 µM
same,LUM: mean difference in luminescence (ATP content) relative to plate controls,[16]; 0.5 µM,0.1703
same,LUM: mean difference in luminescence (ATP content) relative to plate controls,[16]; 1 µM,0.2203
same,LUM: mean difference in luminescence (ATP content) relative to plate controls,[16]; 5 µM,0.7285
same,LUM: mean difference in luminescence (ATP content) relative to plate controls,[16]; 10 µM,0.8296
same,LUM: mean difference in luminescence (ATP content) relative to plate controls,[16]; 25 µM,1.533
same,LUM: mean difference in luminescence (ATP content) relative to plate controls,[16]; 50 µM,2.0258
same,LUM: mean difference in luminescence (ATP content) relative to plate controls,[16]; 75 µM,2.358
same,LUM: mean difference in luminescence (ATP content) relative to plate controls,[16]; 100 µM,2.677
same,"LEC (lowest effect concentration), ATP assay",[16]; 24 h exposure,≤ 10 µM
same,"LEC LUM: lowest effect concentration for luminescence, a measure of nematode ATP content","[16]; C. elegans ATP, JT trend test, Bonferoni correction p<0.05",5 µM
same,EXT: mean difference in nematode size relative to plate controls,[17]; 0.5 µM,0.03177
same,EXT: mean difference in nematode size relative to plate controls,[17]; 1 µM,-0.03542
same,EXT: mean difference in nematode size relative to plate controls,[17]; 5 µM,0.06311
same,EXT: mean difference in nematode size relative to plate controls,[17]; 10 µM,0.04374
same,EXT: mean difference in nematode size relative to plate controls,[17]; 25 µM,0.1555
same,EXT: mean difference in nematode size relative to plate controls,[17]; 50 µM,0.3061
same,EXT: mean difference in nematode size relative to plate controls,[17]; 75 µM,1.032
same,EXT: mean difference in nematode size relative to plate controls,[17]; 100 µM,1.117
same,"LEC EXT: lowest effect concentration for extinction, a measure of nematode size","[17]; C. elegans larval growth, JT trend test, Bonferoni correction p<0.05",50 µM
same,Parkin recruitment,"[8]; HeLa cells stably expressing YFP-Parkin, treated for 2 h",Inactive
same,IC50,"[10]; 1 h treatment, fresh re-sourced stocks, mean±SD of three experiments",2.55 ± 0.58 µM
same,hNSC (efficacy) (MMP),[10]; [21],−70.3±7.17%
same,ROS (HepG2) EC50,"[11]; 2 h treatment, mean±SD of three experiments",Inactive
same,Complex I % inhibition,[18],14.1±2.98 at 100μM %
same,Complex V % inhibition (activity call),[19],Inactive
same,IC50,"[12]; 5 mM glucose, 40 h treatment, mean±SD of three experiments, read-out: ATP (HepG2, glucose) IC50",9.72 ± 5.01 µM
same,"ATP (HepG2, glucose) (efficacy)","[12]; 5 mM glucose, % of positive control",−101±8.17%
same,IC50,"[12]; 10 mM galactose, 40 h treatment, mean±SD of three experiments, read-out: ATP (HepG2, galactose) IC50",6.25 ± 2.01 µM
same,"ATP (HepG2, galactose) (efficacy)","[12]; 10 mM galactose, % of positive control",−98.4±12.9%
